These results are taken from ChEMBL document CHEMBL1136998, “Bis-neonicotinoid insecticides: Observed and predicted binding interactions with the nicotinic receptor” (Bioorg Med Chem Lett, 2009).

Test [1] is described as follows: Displacement of [3H]IMI from Drosophila melanogaster brain nAChR.
Test [2] in a line: Displacement of [3H]IMI from house fly nAChR. Also on record: species or system Musca domestica. Background: Displacement assays read how much labelled ligand stays bound in the presence of the test substance.

Broadly, the Ki is a measure of affinity in units of concentration, obtained from inhibition or displacement. The low end stands for a stronger hold on the target, the high end for a looser hold on the target. In test [1], `O=[N+]([O-])/N=C1/N(CCCCCCCCN2CCN(Cc3ccc(Cl)nc3)/C2=N\[N+](=O)[O-])CCN1Cc1ccc(Cl)nc1` registered an inhibition constant (Ki) of 0.88 µM.

As to `O=[N+]([O-])/N=C1/N(Cc2ccc(CN3CCN(Cc4ccc(Cl)nc4)/C3=N\[N+](=O)[O-])cc2)CCN1Cc1ccc(Cl)nc1`, in test [1], affinity was put at a Ki of 1.18 µM.

Consider `O=[N+]([O-])/N=C1/N(CCCCCCCN2CCN(Cc3ccc(Cl)nc3)/C2=N\[N+](=O)[O-])CCN1Cc1ccc(Cl)nc1`, for which the Ki in test [1] amounted to 0.14 µM. Consider `O=[N+]([O-])/N=C1/N(CCCCCCCCCN2CCN(Cc3ccc(Cl)nc3)/C2=N\[N+](=O)[O-])CCN1Cc1ccc(Cl)nc1`, for which the inhibition constant (Ki) in test [1] was 1.38 µM. This Ki lies about 9.9-fold higher than the previous one.

Take `O=[N+]([O-])/N=C1/N(CCCCCCCCCCN2CCN(Cc3ccc(Cl)nc3)/C2=N\[N+](=O)[O-])CCN1Cc1ccc(Cl)nc1`: the Ki in test [2] worked out at 110 µM. For `O=[N+]([O-])/N=C1\N(Cc2ccc(Cl)nc2)CCN1CN1CCN(Cc2ccc(Cl)nc2)/C1=N\[N+](=O)[O-]`, in test [2], the Ki amounted to 27 µM.

In test [1], `O=[N+]([O-])/N=C1/N(CCCCCN2CCN(Cc3ccc(Cl)nc3)/C2=N\[N+](=O)[O-])CCN1Cc1ccc(Cl)nc1` returned a Ki of 5.35 µM. Still for that read-out and setting: as for `O=[N+]([O-])/N=C1/N(CC/C=C\CCN2CCN(Cc3ccc(Cl)nc3)/C2=N\[N+](=O)[O-])CCN1Cc1ccc(Cl)nc1`, the figure is 0.78 µM; as for `O=[N+]([O-])/N=C1/N(C/C=C/C=C/CN2CCN(Cc3ccc(Cl)nc3)/C2=N\[N+](=O)[O-])CCN1Cc1ccc(Cl)nc1`, 0.97 µM; as for `O=[N+]([O-])/N=C1/N(CC/C=C/CCN2CCN(Cc3ccc(Cl)nc3)/C2=N\[N+](=O)[O-])CCN1Cc1ccc(Cl)nc1`, 2.49 µM. For the compound `O=[N+]([O-])/N=C1/N(CCCCCCN2CCN(Cc3ccc(Cl)nc3)/C2=N\[N+](=O)[O-])CCN1Cc1ccc(Cl)nc1`, in test [1], affinity was put at a Ki of 0.68 µM.
